Test results: patent US20260306500A1, “METHOD OF INHIBITING ADENOSINE TRIPHOSPHATE SECRETION, METHOD OF INHIBITING HEPATIC STELLATE CELL ACTIVATION, METHOD OF DEACTIVATING HEPATIC STELLATE CELL, METHOD OF TREATING HEPATIC FIBROSIS, METHOD OF TREATING NON-ALCOHOLIC STEATOHEPATITIS, AND METHOD OF TREATING PSORIASIS” (Kurume University, priority 2023, published 2026)

Experiments:
[1] = molecular target: T1, V-ATPase (Bos taurus, UniProt P31404+P31408); assay: ATP-dependent proton transport by V-ATPase (acridine orange fluorescence quenching); format: biochemical, cattle; details: role: inhibitor
T1 construct: Chromaffin granule membranes were prepared from adrenal glands collected from slaughtered cattle; from tissue; host or cells: cattle adrenal glands, chromaffin granule membranes (sucrose density gradient)
T1 sequence (P31404 whole entry, looked up): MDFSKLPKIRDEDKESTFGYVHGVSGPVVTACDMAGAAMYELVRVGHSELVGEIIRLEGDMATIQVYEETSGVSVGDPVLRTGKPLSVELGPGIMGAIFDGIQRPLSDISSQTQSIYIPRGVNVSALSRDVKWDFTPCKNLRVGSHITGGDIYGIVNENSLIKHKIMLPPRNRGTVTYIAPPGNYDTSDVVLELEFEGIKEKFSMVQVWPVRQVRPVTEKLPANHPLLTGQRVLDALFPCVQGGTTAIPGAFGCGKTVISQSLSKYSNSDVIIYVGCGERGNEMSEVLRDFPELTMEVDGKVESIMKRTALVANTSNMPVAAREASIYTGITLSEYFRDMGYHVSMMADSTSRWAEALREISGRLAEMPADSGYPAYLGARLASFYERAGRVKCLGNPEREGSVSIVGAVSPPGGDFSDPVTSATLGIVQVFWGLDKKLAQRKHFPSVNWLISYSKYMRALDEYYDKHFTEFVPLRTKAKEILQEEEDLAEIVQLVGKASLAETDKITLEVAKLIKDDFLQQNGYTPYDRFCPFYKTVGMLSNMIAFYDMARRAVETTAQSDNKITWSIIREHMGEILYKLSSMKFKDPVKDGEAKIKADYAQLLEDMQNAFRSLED
T1 sequence (P31408 whole entry, looked up): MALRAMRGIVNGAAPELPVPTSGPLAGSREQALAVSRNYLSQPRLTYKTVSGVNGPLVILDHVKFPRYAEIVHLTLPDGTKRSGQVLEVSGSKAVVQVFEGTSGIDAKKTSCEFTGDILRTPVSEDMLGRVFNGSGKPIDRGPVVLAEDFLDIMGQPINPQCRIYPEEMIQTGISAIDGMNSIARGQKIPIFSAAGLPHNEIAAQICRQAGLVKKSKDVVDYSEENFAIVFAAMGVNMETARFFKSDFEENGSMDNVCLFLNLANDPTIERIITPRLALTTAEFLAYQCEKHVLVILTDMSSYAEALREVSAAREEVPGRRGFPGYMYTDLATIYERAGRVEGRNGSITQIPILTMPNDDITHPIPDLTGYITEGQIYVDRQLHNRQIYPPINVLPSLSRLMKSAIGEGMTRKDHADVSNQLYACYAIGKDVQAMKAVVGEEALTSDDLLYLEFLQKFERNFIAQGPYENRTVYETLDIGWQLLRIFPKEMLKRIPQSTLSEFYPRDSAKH
Protocol: Chromaffin granule membranes were prepared from adrenal glands collected from slaughtered cattle according to Reference A (Nathan Nelson et al., 1988, Chromaffin Granule Proton Pump, Methods in Enzymology, 157, 619-633). Chromaffin granule membranes prepared by sucrose density gradient centrifugation were suspended in 2 ml of SME buffer (20 mM MOPS-tris (pH 7.0), 0.3 M sucrose, 5 mM EDTA, 10 μg/ml leupeptin, and 10 μg/ml pepstatin)+25% glycerol, and the resulting suspension was aliquoted and stored at −80° C. Under these conditions, the ATP transport activity, the V-ATPase activity, and the catecholamine transport activity remain fully active for at least one year.
ATP-dependent proton transport by V-ATPase was measured according to Reference B. Proton transport activity was measured using a spectrofluorometer at excitation wavelength of 492 nm and a fluorescence wavelength 540 nm, wherein fluorescence quenching of acridine orange was used as an index (N=2). The transmembrane potential generated was measured using a spectrofluorometer at an excitation wavelength of 580 nm and a fluorescence wavelength of 630 nm, wherein fluorescence quenching of oxonol-V was used as an index (N=2). The acridine measurement liquid (2 ml) contained 20 mM MOPS-tris (pH 7.0), 0.2 M sucrose, 0.1 M potassium chloride, 5 mM magnesium acetate, 0.2 μg valinomycin, 2 μM acridine orange, and about 20 μg of chromaffin granules. The oxonol-V measurement liquid (2 ml) contained 20 mM MOPS-tris (pH 7.0), 0.3 M sucrose, 5 mM magnesium acetate, 5 μM oxonol-V, and about 20 μg of chromaffin granules.
Chromaffin granule membrane vesicles were prepared in the same manner as in Example 5, and uptake of radiolabeled ATP into the vesicles was measured. Transport activity of catecholamine (dopamine) and ATP-dependent proton transport by V-ATPase were also measured in the same manner as in Example 5.

[2] = system: mouse auricle; assay: Topical solutions on imiquimod-induced psoriasis (Example 21); format: in vivo; details: for degree of auricular thickening: N=2 (FIG. 44)
Protocol: On Days 1, 2, 3, 5, and 6, 62.5 mg of 5% imiquimod cream (Beselna Cream 5%) was applied to auricles of wild-type mice (IMQ) or VNUT knockout mice (VNUT KO+IMQ) to induce psoriatic symptoms. […] For a negative control, only 20% glycerin solution was applied. In IMQ+1% IMG and IMQ+0.1% IMG, 20% glycerin solution supplemented with 1% (w/v) imeglimin and 0.1% (w/v) imeglimin, respectively, was applied immediately after the imiquimod application. Further, in IMQ+1% Clo and IMQ+0.1% Clo, 20% glycerin solution supplemented with 1% (w/v) clodronate and 0.1% (w/v) clodronate, respectively, was applied immediately after the imiquimod application.

[3] = clodronate; cited from earlier work
[4] = system: human epidermal keratinocytes; assay: ATP secretion from keratinocytes upon LPS stimulation; format: cell-based; details: 18 hours, 10 μg/ml LPS, N=8 (FIG. 8)
Protocol: Keratinocytes were cultured in the same manner as in Example 1. Keratinocytes were cultured at 2.5×10^4 cells/well in a 24-well plate at 37° C. in 5% CO2 for 4 days. The medium was replaced with a test solution (Hanks' balanced salt solution (HBSS) (manufactured by Gibco) supplemented with imeglimin, metformin, or clodronate), and then incubation was performed at 37° C. in 5% CO2 for 18 hours. Thereafter, LPS (10 μg/ml) was added thereto, and incubation was further carried out for 10 minutes, followed by collection of 200 μl of the supernatant. The supernatant was immediately treated on a heat block at 95° C. for 10 minutes, and ATP in the supernatant was quantified using an ATP Assay Kit−Luminescence (manufactured by Dojindo) (N=8).

[5] = cited from earlier work
[6] = system: ATP-loaded vesicles of keratinocytes; assay: Accumulation of MANT-ATP in granules of keratinocytes (confocal microscopy); format: cell-based, human; details: 10 μM imeglimin, 19 hours, 0.3 mM MANT-ATP (FIG. 13)
Protocol: Keratinocytes were cultured in the same manner as in Example 8. Keratinocytes were cultured at 4×10^4 cells/ml in a glass-bottom dish (35 mm, manufactured by Matsunami Glass Ind., Ltd.) at 37° C. in 5% CO2 for 2 days. The culture medium was then replaced with a medium supplemented with MANT-ATP (manufactured by Invitrogen) at a final concentration of 0.3 mM, and further incubation was performed for 4.5 hours. Subsequently, imeglimin was added thereto to a final concentration of 10 μM, and further incubation was performed at 37° C. in 5% CO2 for 19 hours. Thereafter, the cells were washed twice with HBSS (manufactured by Gibco) and observed using an inverted confocal laser microscope (FV-1000 OSR, manufactured by Olympus Corporation).

[7] = topical 0.1% (w/v) in 20% glycerin solution after imiquimod
[8] = topical 1% (w/v) in 20% glycerin solution after imiquimod

C=C(OP(=O)(O)O)C(=O)O [PEP, phosphoenolpyruvic acid]
change in acridine orange quenching level ([1]; 5 mM PEP, in presence of ATP, N=2): did not change the level of quenching
inhibition of V-ATPase ([1]; up to 5 mM PEP (data not shown)): did not inhibit

O=P(O)(O)C(Cl)(Cl)P(=O)(O)O [clodronate]
auricular thickness compared with imiquimod-treated VNUT knockout mice ([2]; topical 0.1% (w/v)): about the same
degree of auricular thickening [2, 7]: improved
auricular thickness compared with imiquimod-treated VNUT knockout mice ([2]; topical 1% (w/v)): about the same
degree of auricular thickening [2, 8]: improved
absorption [3]: extremely low absorption
accumulation in bone [3]: accumulate in bone
serious side effect [3]: jaw osteonecrosis
LPS-stimulated ATP secretion ([4]; 10 μM): almost completely inhibited

C[C@@H]1N=C(N)NC(N(C)C)=N1 [imeglimin]
concentration ([5]; 1 g of imeglimin hydrochloride daily for one week, 10080 min, read-out: blood imeglimin concentration): 9 µM
transfer into the body ([5]; imeglimin): extremely low transfer into the body
degree of auricular thickening [2, 7]: no effect
concentration dependence of effect on auricular thickening ([2]; topical 0.1% and 1% (w/v)): concentration-dependent
auricular thickness compared with imiquimod-treated VNUT knockout mice ([2]; topical 1% (w/v)): about the same
degree of auricular thickening [2, 8]: improved
accumulation of MANT-ATP in granules [6]: absent
LPS-stimulated ATP secretion ([4]; 1 μM): almost completely inhibited
LPS-stimulated ATP secretion ([4]; 10 μM): almost completely inhibited
